47 compounds from BindingDB's records for doi:10.1016/S1074-5521(99)80048-9 (University of California Berkeley, 1999) can be followed below.

SMILES strings stand for the structures. pIC50: −log10 of the molar value. Bounds are passed on as bounds.

What is called pIC50 is the negative decadic logarithm of the IC50, by convention in mol/L. A low value points to a large IC50.

For this experiment, the target named is Cyclin-dependent kinase 1 (Homo sapiens, UniProt P06493). Put plainly: Inhibition Assay. From the text: Inhibition assay using CDK1/cyclin B.
Cyclin-dependent kinase 1, sequence (P06493 whole entry): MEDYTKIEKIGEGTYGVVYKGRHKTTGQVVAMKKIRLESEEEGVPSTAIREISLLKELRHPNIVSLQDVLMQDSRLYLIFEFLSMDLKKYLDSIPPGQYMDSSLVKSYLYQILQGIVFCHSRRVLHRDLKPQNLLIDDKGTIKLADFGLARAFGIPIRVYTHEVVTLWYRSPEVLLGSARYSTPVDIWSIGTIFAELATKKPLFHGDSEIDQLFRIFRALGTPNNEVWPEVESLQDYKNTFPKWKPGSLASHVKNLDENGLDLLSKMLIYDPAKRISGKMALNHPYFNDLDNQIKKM
Consider `COc1ccc(CNc2nc(NCC(O)c3ccccc3)nc3c2NCN3C(C)C)cc1` (configuration not stated) [6-(4-methoxybenzylamino) core C2-substituent, 50], for which the pIC50 is 5.55. `COc1ccc(CNc2nc(N3CCN(C)CC3)nc3c2NCN3C(C)C)cc1` [6-(4-methoxybenzylamino) core C2-substituent, 12] had a pIC50 of 4.97. Compared with the last compound, the pIC50 is 0.58 log units lower.

`CC(O)CN(CC(C)O)c1nc(Nc2cccc(Cl)c2)c2c(n1)N(C(C)C)CN2` (configuration not stated) [6-(3-chloroanilino)-9-isopropylpurine core C2-substituent, 305] showed a pIC50 of 6.46. Then `CC(C)[C@H](CO)Nc1nc(Nc2ccccc2)c2c(n1)N(C(C)C)CN2` [2-(1 R-isopropyl-2-hydroxyethylamino)-9-isopropylpurine core C6-substituent, 78], with 6.62; and `COc1ccc(CNc2nc(NCCCO)nc3c2NCN3C(C)C)cc1` [6-(4-methoxybenzylamino) core C2-substituent, 209], with 5.92; and `COc1ccc(CNc2nc(NCC(O)CN)nc3c2NCN3C(C)C)cc1` (configuration not stated) [6-(4-methoxybenzylamino) core C2-substituent, 41], with 5.80.

The compound `CC(C)[C@H](CO)Nc1nc(Nc2ccc(Cl)c(C(=O)O)c2)c2c(n1)N(C(C)C)CN2` [2-(1 R-isopropyl-2-hydroxyethylamino)-9-isopropylpurine core C6-substituent, 96] had a pIC50 of 7.52. The compound `CC(C)N1CNc2c(Nc3ccc4ccccc4c3)nc(NCCO)nc21` [2-(2-hydroxyethylamino)-9-isopropylpurine core C6-substituents, 47] showed a pIC50 of 6.37. Compound `CC(C)N1CNc2c(NCc3cccc(C(F)(F)F)c3)nc(N3CCCCC3CCO)nc21` (configuration not stated) [2-(2-hydroxyethylpiperidyl)-9-isopropylpurine core C6-substituent, 222] gave a pIC50 of 5.52. Consider `COc1ccc(CNc2nc(N(CCO)CCCO)nc3c2NCN3C(C)C)cc1` [6-(4-methoxybenzylamino) core C2-substituent, 211], for which the pIC50 is 6.60. The compound `CC(C)N1CNc2c(Nc3cccc(Cl)c3)nc(N[C@H](CO)c3ccccc3)nc21` [6-(3-chloroanilino)-9-isopropylpurine core C2-substituent, 59] gave a pIC50 of 6.10. Turning to `Cc1ccc(CN(c2nc(Nc3cccc(Cl)c3)c3c(n2)N(C(C)C)CN3)[C@@H](O)C(C)C)cc1` [2-((1 R-isopropyl)-2-hydroxyethylamino)-6-(3-chloroanilino)-9-isopropylpurine core C2-substituent, 317], the negative logarithm of the IC50 (pIC50) is < 5.00. Then `CC[C@H](CO)Nc1nc(Nc2cccc(Cl)c2)c2c(n1)N(C(C)C)CN2` [6-(3-chloroanilino)-9-isopropylpurine core C2-substituent, 307], with 6.52; and `COc1ccc(CNc2nc(N3CCC(O)CC3)nc3c2NCN3C(C)C)cc1` [6-(4-methoxybenzylamino) core C2-substituent, 27], with 5.19; and `COc1ccc(CNc2nc(NCCO)nc3c2NCN3C(C)C)cc1` [6-(4-methoxybenzylamino) core C2-substituent, 118], with 6.15. In turn, `CC(C)N1CNc2c(NCc3ccccc3)nc(N3CCCCC3CCO)nc21` (configuration not stated) [2-(2-hydroxyethylpiperidyl)-9-isopropylpurine core C6-substituent, 212] gave a pIC50 of 6.80. The compound `CC(C)N1CNc2c(Nc3cccc(Cl)c3)nc(N[C@H](CO)Cc3ccccc3)nc21` [6-(3-chloroanilino)-9-isopropylpurine core C2-substituent, 70] showed a pIC50 of 6.30. Consider `CC(C)N1CNc2c(Nc3cccc(Cl)c3)nc(N[C@H](CO)C(C)(C)C)nc21` [6-(3-chloroanilino)-9-isopropylpurine core C2-substituent, 61], for which the pIC50 is 5.64. `COc1ccc(CNc2nc(N3CCCCCC3)nc3c2NCN3C(C)C)cc1` [6-(4-methoxybenzylamino) core C2-substituent, 38]: the pIC50 was 5.40. `COc1ccc(CNc2nc(N[C@@H](CO)CC(C)C)nc3c2NCN3C(C)C)cc1` [6-(4-methoxybenzylamino) core C2-substituent, 36] had a pIC50 of 7.00. This pIC50 is 1.60 log units higher than that of the compound before. Compound `CCC(C)[C@@H](CO)Nc1nc(Nc2cccc(Cl)c2)c2c(n1)N(C(C)C)CN2` (some centres not stated) [6-(3-chloroanilino)-9-isopropylpurine core C2-substituent, 62] showed a negative logarithm of the IC50 (pIC50) of 6.30. Compound `COc1ccc(CNc2nc(NCC(O)CO)nc3c2NCN3C(C)C)cc1` (configuration not stated) [6-(4-methoxybenzylamino) core C2-substituent, 15] gave a pIC50 of 5.89.

The compound `COc1ccc(CNc2nc(N(C)CC(O)c3ccccc3)nc3c2NCN3C(C)C)cc1` (configuration not stated) [6-(4-methoxybenzylamino) core C2-substituent, 37] had a pIC50 of 6.00. Take `CC(C)N1CNc2c(Nc3cccc(Cl)c3)nc(N(CCO)Cc3ccccc3)nc21` [6-(3-chloroanilino)-9-isopropylpurine core C2-substituent, 302]: the pIC50 was 5.30.

For the compound `CC(C)N1CNc2c(Nc3ccc(Cl)cc3)nc(N3CCCCC3CCO)nc21` (configuration not stated) [2-(2-hydroxyethylpiperidyl)-9-isopropylpurine core C6-substituent, 359], the pIC50 was 6.10. As for `CC(C)N1CNc2c(Nc3ccccc3)nc(N3CCCCC3CCO)nc21` (configuration not stated) [2-(2-hydroxyethylpiperidyl)-9-isopropylpurine core C6-substituent, 220], the pIC50 was 6.89.

`CC(C)[C@H](CO)Nc1nc(Nc2ccc(O)c(C(=O)O)c2)c2c(n1)N(C(C)C)CN2` [2-(1 R-isopropyl-2-hydroxyethylamino)-9-isopropylpurine core C6-substituent, 94] had a pIC50 of 7.00. The same measure for `COc1ccccc1Nc1nc(NCCO)nc2c1NCN2C(C)C` [2-(2-hydroxyethylamino)-9-isopropylpurine core C6-substituents, 46]: 5.05. Compound `CC(C)N1CNc2c(NCc3cccc(I)c3)nc(N3CCCCC3CCO)nc21` (configuration not stated) [2-(2-hydroxyethylpiperidyl)-9-isopropylpurine core C6-substituent, 113] showed a pIC50 of 5.22.

As for `CCCCNc1nc(N2CCCCC2CCO)nc2c1NCN2C(C)C` (configuration not stated) [2-(2-hydroxyethylpiperidyl)-9-isopropylpurine core C6-substituent, 219], the pIC50 is 5.89.

Compound `CCN(CCO)c1nc(NCc2ccc(OC)cc2)c2c(n1)N(C(C)C)CN2` [6-(4-methoxybenzylamino) core C2-substituent, 13] showed a pIC50 of 5.92. The pIC50 values of the last two compounds are within 0.2 log units of each other. `CC(C)[C@H](CO)Nc1nc(Nc2ccc(Cl)cc2)c2c(n1)N(C(C)C)CN2` [2-(1 R-isopropyl-2-hydroxyethylamino)-9-isopropylpurine core C6-substituent, 356] gave a pIC50 of 7.10. Against the preceding compound, the pIC50 is 1.18 log units higher.

Compound `CC(C)N1CNc2c(Nc3cccc(Cl)c3)nc(NCCO)nc21` [2-(2-hydroxyethylamino)-9-isopropylpurine core C6-substituents, 52] gave a pIC50 of 6.66. Regarding `COc1ccc(CNc2nc(N(CC(C)O)CC(C)O)nc3c2NCN3C(C)C)cc1` (configuration not stated) [6-(4-methoxybenzylamino) core C2-substituent, 16], the pIC50 was 6.62. This pIC50 and that of the compound before are within 0.2 log units of each other. In the case of `COc1ccc(CNc2nc(N3CCCCC3CCO)nc3c2NCN3C(C)C)cc1` (configuration not stated) [6-(4-methoxybenzylamino) core C2-substituent, 10], the pIC50 is 6.68. The pIC50 values of the last two compounds are within 0.2 log units of each other. Then `COc1ccc(CNc2nc(N(CCO)Cc3ccccc3)nc3c2NCN3C(C)C)cc1` [6-(4-methoxybenzylamino) core C2-substituent, 49], with 5.55.

As to `COc1ccc(CNc2nc(NC3(CO)CCCC3)nc3c2NCN3C(C)C)cc1` [6-(4-methoxybenzylamino) core C2-substituent, 314], the pIC50 is 6.35. `CC(C)C[C@H](CO)Nc1nc(Nc2cccc(Cl)c2)c2c(n1)N(C(C)C)CN2` [6-(3-chloroanilino)-9-isopropylpurine core C2-substituent, 308] showed a pIC50 of 6.28.

In the case of `COc1ccc(CNc2nc(N3CCN(CCO)CC3)nc3c2NCN3C(C)C)cc1` [6-(4-methoxybenzylamino) core C2-substituent, 11], the pIC50 was 5.15. `CC(C)N1CNc2c(NCCC(c3ccccc3)c3ccccc3)nc(N3CCCCC3CCO)nc21` (configuration not stated) gave a pIC50 of 5.05. This pIC50 and that of the compound before are within 0.2 log units of each other. Then `COc1ccc(CNc2nc(N(CCN(C)C)Cc3ccccc3)nc3c2NCN3C(C)C)cc1` [6-(4-methoxybenzylamino) core C2-substituent, 40], with 5.30; and `CC(C)N1CNc2c(N(CCN(C)C)Cc3ccccc3)nc(N3CCCCC3CCO)nc21` (configuration not stated) [2-(2-hydroxyethylpiperidyl)-9-isopropylpurine core C6-substituent, 227], with < 5.00. The same measure for `CC(C)N1CNc2c(NCc3ccc4ccccc4c3)nc(N3CCCCC3CCO)nc21` (configuration not stated) [2-(2-hydroxyethylpiperidyl)-9-isopropylpurine core C6-substituent, 226]: 5.92; for `CC(C)N1CNc2c(Nc3cccc(Cl)c3)nc(N[C@H]3Cc4ccccc4[C@H]3O)nc21` [6-(3-chloroanilino)-9-isopropylpurine core C2-substituent, 69]: 5.30; for `CC(C)[C@H](CO)Nc1nc(Nc2ccc(Br)cc2)c2c(n1)N(C(C)C)CN2` [2-(1 R-isopropyl-2-hydroxyethylamino)-9-isopropylpurine core C6-substituent, 73]: 7.40.

Regarding `CC(C)[C@H](CO)Nc1nc(NCc2cccc(I)c2)c2c(n1)N(C(C)C)CN2` [2-(1 R-isopropyl-2-hydroxyethylamino)-9-isopropylpurine core C6-substituent, 112], the pIC50 is 6.77.

Consider `CC(C)N1CNc2c(NCCNc3ccccc3)nc(N3CCCCC3CCO)nc21` (configuration not stated) [2-(2-hydroxyethylpiperidyl)-9-isopropylpurine core C6-substituent, 224], for which the pIC50 is 5.82.
